According to patent US20200385423A1, “USE OF EXCITATORY NERVE INJURY-RELATED POLYPEPTIDE IN PREVENTING, ALLEVIATING OR TREATING PAIN” (Biocells (Beijing) Biotech Co., Ltd., priority 2016, published 2020):

What was measured:
Type in all cases: in vivo, rat
rats = assay: Acute toxicity tests on rats; settings: dose of 1000 mg/kg body weight
Procedure: Acute toxicity tests were performed on rats.

SD rats [1] = assay: Needling experiment (vonFrey probe) in rats with sciatic nerve ligation; settings: for paw lifting threshold due to needling at surgical side after administration: P5 0.2 μg/kg caudal vein, ibuprofen 50 mg/kg intragastric
Procedure: Eighteen male SD rats of 240-260 g (purchased from Huafukangcheng Co., Ltd.) were selected as experimental rats, and divided into three groups with six rats in each group for a needling experiment, including a group administered with the polypeptide at a dose of 0.2 μg/kg, a normal saline group and a positive control drug group (ibuprofen, 50 mg/kg).
(§1) 4.0 chromic catguts (purchased from Shandong Boda Medical Products Co., Ltd.) were immersed into normal saline (purchased from Shijiazhuang Four Medicine Co., Ltd., National Pharmaceutical Standard H13023200) for 30 minutes for softening. Rats were shaved in the middle of their thighs, and wiped with iodine. Wound at 1 cm below the epidermis was created with a scissor, and then a J31060 hemostat was used to tear the biceps femoris. The sciatic nerve was thus exposed at the middle of the thighs. The end proximal to the leg was the trigeminal sciatic nerve. The sciatic nerve at the middle of the thighs was gently ligated four times with the 4.0 chromic catguts. The force was deemed appropriate if muscles near the ligation site slightly trembled. The adjacent ligation sites were 1 mm apart. Then muscles and epidermal tissues were sutured separately.
(§2) Before the experiment, the rats with successful surgery in the test group were injected via caudal vein with Peptide P5 in normal saline (dose at 0.2 μg/kg). Rats in normal saline group were intraperitoneally injected with 0.3 mL of normal saline. The positive drug group was administered via intragastric infusion with ibuprofen suspension (purchased from Shanghai Qiangsheng Pharmaceutical Co., Ltd., National Pharmaceutical Standard H19991011) at a dose of 50 mg/kg.
Fourteen days after surgery, the rats in the administration groups were tested before administration and 10 min\70 min\130 min after administration. The experimental rats were placed in a plexiglass observation chamber to acclimate the environment for 5 minutes until the rats no longer looked around. The ZS-CTY foot needling system (purchased from Beijing Zhongshi Di Chuang Technology Development Co., Ltd.) was connected to a win7 32-bit computer. The test software was opened to calibrate the zero point of the instrument, and then calibrate again after a 10 g weight was added. The vonFrey probe was used to slowly and gently stimulate the middle parts of the testing hind paws of the rats to observe the paw withdrawal reaction of the rats. […] The paw withdrawal reaction of rats due to physical activity was excluded. The reaction was recorded twice at each time point, and averaged to obtain paw lifting force thresholds (in g) due to needling. The foot needling system (purchased from Beijing Zhongshi Di Chuang Technology Development Co., Ltd.; lot. number: 20160101060001) was adjusted to zero with a 10 g weight, there was still a fundamental read fluctuation when the bottom of the rats' paws was needled. The fluctuation was generally between +3 and +5 g, which should be subtracted from the final value. If there was still a baseline, it should be removed.
EXCEL's T-test function (two-tailed variance) was used to analyze the statistical difference in paw lifting force thresholds due to needling between the untreated side and surgical side in the experimental rats to evaluate whether or not the modeling was successful. The difference among the needling pain force thresholds before administration and at each time point after administration was then analyzed to evaluate the pharmaceutical efficacy and effect duration.

SD rats [2] = assay: Hot plate experiment in rats with sciatic nerve ligation; settings: for paw lifting time threshold due to heating pain at surgical side after administration: P5 0.2 μg/kg caudal vein, ibuprofen 50 mg/kg intragastric
Procedure: Eighteen male SD rats of 240-260 g (purchased from Huafukangcheng Co., Ltd.) were selected as experimental rats, and divided into three groups with six rats in each group for a hot plate experiment, including a group administered with Polypeptide P5 at a dose of 0.2 μg/kg, a group administered with normal saline and a group administered with positive control drug (ibuprofen, 50 mg/kg). Screening was conducted before the experiment.
as §1, §2
Hot plate experiments were performed on rats 7 days after surgery. Rats were feed properly, and the indoor environment was maintained at about 25° C. The temperature of the YLS-6B intelligent hot plate instrument (purchased from Beijing Zhongshi Di Chuang Technology Development Co., Ltd.) was set at about 55° C. The rats were placed on the hot plate instrument in a closed, detachable, and transparent plexiglass jar, and the time of occurrence of the hind paw licking or jump reaction was recorded. If there no reaction was observed from the rats with administration 20 seconds after placement in the jar, the SD rats were taken out to avoid scalding the paws due to too long heating. The pain threshold of such rats was calculated as 20 seconds. Each rat was tested twice in succession with the interval of at least 30 seconds. The average of results was calculated.
At the end of the experiment, the heating pain response time (i.e., pain threshold in second) of rats in the normal saline control group and individual drug-administered groups before administration and 10 min, 70 min, and 130 min after administration was recorded.
EXCEL's T-test function (two-tailed variance) was used to analyze the statistical difference between the paw lifting time thresholds due to heating pain of pre-modeling and post-modeling experimental rats to evaluate whether or not the modeling was successful. The difference among the heating pain time thresholds before administration and at each time point after administration was then analyzed to evaluate the pharmaceutical efficacy.

[3] = P5 0.2 μg/kg, ibuprofen 50 mg/kg

Compound	acute toxicity (rats)	paw lifting threshold due to needling at surgical side after administration (SD rats [1]; 10 min after administration) [g]	paw lifting threshold due to needling at surgical side after administration (SD rats [1]; 70 min after administration) [g]	paw lifting threshold due to needling at surgical side after administration (SD rats [1]; 130 min after administration) [g]	duration of therapeutic (analgesic) effect, needling experiment (SD rats [1]; [3]) [min]	paw lifting threshold due to needling at surgical side before administration (SD rats [1]; baseline 14 days after surgery, before administration) [g]	paw lifting threshold due to needling, healthy side (control) (SD rats [1]; healthy side of the group, control value) [g]	paw lifting time threshold due to heating pain at surgical side after administration (SD rats [2]; 10 min after administration) [s]	paw lifting time threshold due to heating pain at surgical side after administration (SD rats [2]; 70 min after administration) [s]	paw lifting time threshold due to heating pain at surgical side after administration (SD rats [2]; 130 min after administration) [s]	duration of therapeutic (analgesic) effect, hot plate experiment (SD rats [2]; [3]) [min]	paw lifting time threshold due to heating pain, surgical side before administration (SD rats [2]; baseline 7 days after surgery, before administration, hot plate about 55° C.) [s]	paw lifting time threshold due to heating pain, pre-modeling (control) (SD rats [2]; baseline of the group before modeling, hot plate about 55° C.) [s]
CC[C@H](C)[C@H](NC(=O)[C@H](CCC(=O)O)NC(=O)[C@@H](NC(=O)[C@H](CC(=O)O)NC(=O)[C@H](CC(C)C)NC(=O)[C@H](CC(C)C)NC(=O)[C@H](CCCCN)NC(=O)[C@H](CCC(=O)O)NC(=O)[C@H](Cc1ccc(O)cc1)NC(=O)[C@H](CCCNC(=N)N)NC(=O)[C@H](CCCNC(=N)N)NC(=O)[C@H](CCCNC(=N)N)NC(=O)[C@H](CCC(N)=O)NC(=O)[C@H](CCCNC(=N)N)NC(=O)[C@H](CCCNC(=N)N)NC(=O)[C@H](CCCCN)NC(=O)[C@H](CCCCN)NC(=O)[C@H](CCCNC(=N)N)NC(=O)CNC(=O)[C@@H](N)Cc1ccc(O)cc1)[C@@H](C)O)C(=O)O [Polypeptide P5]	no lethal effect and other obvious toxic side effects												
CC(C)Cc1ccc(C(C)C(=O)O)cc1 (stereo not shown) [ibuprofen]		46.24	36.21	38.88	< 130	28.72	73.65	5.74	4.64	4.19	< 130	3.95	12.5
